Key:
Assay in all cases: NCI-60 one-dose SRB screening
Format in all cases: cell-based
HS 578T = conditions: Homo sapiens, Breast Cancer, 10 µM one dose, 48 h, read-out: growth percentage
SK-OV-3 = conditions: Homo sapiens, SK-OV-3, Ovarian Cancer, 10 µM one dose, 48 h, read-out: growth percentage
SF-268 = conditions: Homo sapiens, SF-268, CNS Cancer, 10 µM one dose, 48 h, read-out: growth percentage
UACC-257 = conditions: Homo sapiens, UACC-257, Melanoma, 10 µM one dose, 48 h, read-out: growth percentage
SK-MEL-5 = conditions: Homo sapiens, SK-MEL-5, Melanoma, 10 µM one dose, 48 h, read-out: growth percentage
MDA-MB-435 = conditions: Homo sapiens, MDA-MB-435, Melanoma, 10 µM one dose, 48 h, read-out: growth percentage
OVCAR-8 = conditions: Homo sapiens, OVCAR-8, Ovarian Cancer, 10 µM one dose, 48 h, read-out: growth percentage
DU-145 = conditions: Homo sapiens, DU-145, Prostate Cancer, 10 µM one dose, 48 h, read-out: growth percentage
MALME-3M = conditions: Homo sapiens, Melanoma, 10 µM one dose, 48 h, read-out: growth percentage
BT-549 = conditions: Homo sapiens, BT-549, Breast Cancer, 10 µM one dose, 48 h, read-out: growth percentage
NCI-H226 = conditions: Homo sapiens, NCI-H226, Non-Small Cell Lung Cancer, 10 µM one dose, 48 h, read-out: growth percentage
SW-620 = conditions: Homo sapiens, SW-620, Colon Cancer, 10 µM one dose, 48 h, read-out: growth percentage
CCRF-CEM = conditions: Homo sapiens, Leukemia, 10 µM one dose, 48 h, read-out: growth percentage
UO-31 = conditions: Homo sapiens, UO-31, Renal Cancer, 10 µM one dose, 48 h, read-out: growth percentage
UACC-62 = conditions: Homo sapiens, UACC-62, Melanoma, 10 µM one dose, 48 h, read-out: growth percentage
EKVX = conditions: Homo sapiens, Non-Small Cell Lung Cancer, 10 µM one dose, 48 h, read-out: growth percentage
RXF 393 = conditions: Homo sapiens, RXF 393, Renal Cancer, 10 µM one dose, 48 h, read-out: growth percentage
KM12 = conditions: Homo sapiens, KM12, Colon Cancer, 10 µM one dose, 48 h, read-out: growth percentage
SK-MEL-2 = conditions: Homo sapiens, SK-MEL-2, Melanoma, 10 µM one dose, 48 h, read-out: growth percentage
MDA-MB-468 = conditions: Homo sapiens, MDA-MB-468, Breast Cancer, 10 µM one dose, 48 h, read-out: growth percentage
SR = conditions: Homo sapiens, Leukemia, 10 µM one dose, 48 h, read-out: growth percentage
OVCAR-4 = conditions: Homo sapiens, OVCAR-4, Ovarian Cancer, 10 µM one dose, 48 h, read-out: growth percentage

Row | SMILES | activity at 10 µM (HS 578T) [%] | activity at 10 µM (SK-OV-3) [%] | activity at 10 µM (SF-268) [%] | activity at 10 µM (UACC-257) [%] | activity at 10 µM (SK-MEL-5) [%] | activity at 10 µM (MDA-MB-435) [%] | activity at 10 µM (OVCAR-8) [%] | activity at 10 µM (DU-145) [%] | activity at 10 µM (MALME-3M) [%] | activity at 10 µM (BT-549) [%] | activity at 10 µM (NCI-H226) [%] | activity at 10 µM (SW-620) [%] | activity at 10 µM (CCRF-CEM) [%] | activity at 10 µM (UO-31) [%] | activity at 10 µM (UACC-62) [%] | activity at 10 µM (EKVX) [%] | activity at 10 µM (RXF 393) [%] | activity at 10 µM (KM12) [%] | activity at 10 µM (SK-MEL-2) [%] | activity at 10 µM (MDA-MB-468) [%] | other results
1 | Cc1nn(-c2ccccc2)c2ncnc(Nc3ccc(OCc4c(-c5ccccc5)no[n+]4[O-])cc3)c12 [6c, 3-((4-((3-methyl-1-phenyl-1H-pyrazolo[3,4-d]pyrimidin-4-yl)amino)phenoxy)methyl)-4-phenyl-1,2,5-oxadiazole 2-oxide] | 97.5 | 104 | 96.5 | 105 | 90.4 | 93.4 | 101 | 106 | 98.2 | 101 | 97.3 | 107 | 97.4 | 77 | 81.4 | 90.4 | 112 | 99.8 | 103 | 97.1 | activity at 10 µM (SR): 73.9%; activity at 10 µM (OVCAR-4): 90.6%
2 | Cc1nc(Nc2ccc(OCc3c(-c4ccccc4)no[n+]3[O-])cc2)c2cnn(-c3ccccc3)c2n1 [6b, 3-((4-((6-methyl-1-phenyl-1H-pyrazolo[3,4-d]pyrimidin-4-yl)amino)phenoxy)methyl)-4-phenyl-1,2,5-oxadiazole 2-oxide] | 110 | 110 | 103 | 101 | 103 | 99.7 | 105 | 105 | 99.3 | 95 | 94.7 | 120 | 102 | 95 | 88.4 | 93.1 | 111 | 102 | 109 | 94.3 | activity at 10 µM (SR): 89.1%; activity at 10 µM (OVCAR-4): 102%
3 | [O-][n+]1onc(-c2ccccc2)c1COc1ccc(Nc2ncnc3c2cnn3-c2ccccc2)cc1 [6a, 4-phenyl-3-((4-((1-phenyl-1H-pyrazolo[3,4-d]pyrimidin-4-yl)amino)phenoxy)methyl)-1,2,5-oxadiazole 2-oxide] | 98.7 | 102 | 103 | 98.9 | 102 | 114 | 105 | 107 | 90 | 95.4 | 111 | 106 | 91 | 94.2 | 103 | 98.9 | 98.4 | 103 | 105 | 107 | activity at 10 µM (SR): 85.2%; activity at 10 µM (OVCAR-4): 130%
4 | Cc1nc(Nc2ccc(OCc3c(-c4ccccc4)no[n+]3[O-])cc2)c2c(C)nn(-c3ccccc3)c2n1 [6d, 3-((4-((3,6-dimethyl-1-phenyl-1H-pyrazolo[3,4-d]pyrimidin-4-yl)amino)phenoxy)methyl)-4-phenyl-1,2,5-oxadiazole 2-oxide] | 102 | 109 | 106 | 109 | 98 | 105 | 107 | 112 | 101 | 102 | 101 | 119 | 113 | 88.5 | 89.6 | 102 | 119 | 104 | 121 | 107 | activity at 10 µM (SR): 102%; activity at 10 µM (OVCAR-4): 103%
5 | Cc1nn(-c2ccc(Br)cc2)c2nc(CNc3ccc(NCc4c(-c5ccccc5)no[n+]4[O-])cc3)[nH]c(=O)c12 [14c, 3-(((4-(((1-(4-bromophenyl)-3-methyl-4-oxo-4,5-dihydro-1H-pyrazolo[3,4-d]pyrimidin-6-yl)methyl)amino)phenyl)amino)methyl)-4-phenyl-1,2,5-oxadiazole 2-oxide] | 108 | 107 | 95.2 | 101 | 104 | 101 | 112 | 107 | 92.5 | 98.1 | 109 | 111 | 105 | 83.4 | 105 | 98.9 | 117 | 106 | 107 | 94.4 | activity at 10 µM (SR): 95.2%; activity at 10 µM (OVCAR-4): 127%
6 | Cc1nc(Nc2ccc(OCc3c(-c4ccccc4)no[n+]3[O-])cc2)c2c(C)nn(-c3ccc(Br)cc3)c2n1 [6h, 3-((4-((1-(4-bromophenyl)-3,6-dimethyl-1H-pyrazolo[3,4-d]pyrimidin-4-yl)amino)phenoxy)methyl)-4-phenyl-1,2,5-oxadiazole 2-oxide] | 94.8 | 109 | 94.7 | 99.8 | 91.5 | 96.7 | 102 | 102 | 96 | 91.1 | 109 | 101 | 103 | 74 | 80.2 | 92.3 | 136 | 97.7 | 96.9 | 116 | activity at 10 µM (SR): 72%; activity at 10 µM (OVCAR-4): 97%
7 | [O-][n+]1onc(-c2ccccc2)c1CNc1ccc(Nc2nc(C(F)(F)F)nc3c2cnn3-c2ccc(Br)cc2)cc1 [12b, 3-(((4-((1-(4-bromophenyl)-6-(trifluoromethyl)-1H-pyrazolo[3,4-d]pyrimidin-4-yl)amino)phenyl)amino)methyl)-4-phenyl-1,2,5-oxadiazole 2-oxide] | 77.6 | 88.8 | 65 | 102 | 86 | 72.8 | 72.8 | 70.8 | 93.5 | 97.5 | 77 | 84.8 | 48.5 | 43.4 | 64.9 | 65.4 | 51.2 | 41.2 | 99.8 | 72 | activity at 10 µM (SR): 43.5%; activity at 10 µM (OVCAR-4): 78.5%
8 | O=c1[nH]c(CNc2ccc(NCc3c(-c4ccccc4)no[n+]3[O-])cc2)nc2c1cnn2-c1ccccc1 [14a, 3-(((4-(((4-oxo-1-phenyl-4,5-dihydro-1H-pyrazolo[3,4-d]pyrimidin-6-yl)methyl)amino)phenyl)amino)methyl)-4-phenyl-1,2,5-oxadiazole 2-oxide] | 85.8 | 60.6 | 73.5 | 39 | 85.3 | 70.7 | 109 | 74.6 | 63.6 | 62.1 | 77.2 | 92.8 | 57.9 | 55.9 | 60.6 | 51.3 | 98.4 | 73.3 | 77.8 | 33.2 | activity at 10 µM (SR): 45.7%; activity at 10 µM (OVCAR-4): 94.5%

— paper PMC8880564, “Design, Synthesis, and Biological Evaluation of a Novel VEGFR-2 Inhibitor Based on a 1,2,5-Oxadiazole-2-Oxide Scaffold with MAPK Signaling Pathway Inhibition” (Pharmaceuticals, 2022)
